What was measured:
Assay in all cases: Test B pre-/postemergence plant response
Assay type in all cases: in vivo
[1] = tested on: large crabgrass (Digitaria sanguinalis); conditions: for Crabgrass, Large plant response rating: 0 to 100 scale
In short: (§1)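 Each species received compound formulated in non-phytotoxic solvent with surfactant, either at planting into a loam and sand blend or as a foliar spray once plants reached 2 to 18 cm in peat-based medium. Plants stayed in the greenhouse 13 to 15 days before visual evaluation against controls, scored 0 (no effect) to 100 (complete control).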

[2] = tested on: galium (catchweed bedstraw, Galium aparine); conditions: Preemergence; for Galium plant response rating: 250 g ai/ha, 0 to 100 scale
In short: as §1

[3] = tested on: Surinam grass (Brachiaria decumbens); conditions: for Surinam Grass plant response rating: 0 to 100 scale
In short: as §1

[4] = tested on: cocklebur (Xanthium strumarium); conditions: Preemergence; for Cocklebur plant response rating: 250 g ai/ha, 0 to 100 scale
In short: as §1

[5] = tested on: lambsquarters (Chenopodium album); conditions: for Lambsquarters plant response rating: 0 to 100 scale
In short: as §1

[6] = tested on: sunflower (common oilseed sunflower, Helianthus annuus); conditions: Preemergence; for Sunflower plant response rating: 250 g ai/ha, 0 to 100 scale
In short: as §1

[7] = tested on: nightshade (eastern black nightshade, Solanum ptycanthum); conditions: Preemergence; for Nightshade plant response rating: 250 g ai/ha, 0 to 100 scale
In short: as §1

wild oat (Avena fatua) = conditions: for Oat, Wild plant response rating: 0 to 100 scale
In short: as §1

[8] = tested on: woolly cupgrass (Eriochloa villosa); conditions: for Cupgrass, Woolly plant response rating: 0 to 100 scale
In short: as §1

[9] = tested on: yellow nutsedge (Cyperus esculentus); conditions: for Nutsedge, Yellow plant response rating: 0 to 100 scale
In short: as §1

kochia (Kochia scoparia) = tested on: kochia (Kochia scoparia)
In short: as §1

[10] = Postemergence, 31 g ai/ha, 0 to 100 scale (0 no effect, 100 complete control)
[11] = Postemergence, 125 g ai/ha, scale 0 to 100 (0 no effect, 100 complete control)
[12] = Postemergence, 250 g ai/ha, scale 0 to 100 (0 no effect, 100 complete control), 13 to 15 days
[13] = Postemergence, 62 g ai/ha, scale 0 to 100 (0 no effect, 100 complete control)
[14] = Preemergence, 31 g ai/ha, scale 0 to 100 (0 no effect, 100 complete control)
[15] = Preemergence, 62 g ai/ha, scale 0 to 100, 0 no effect, 100 complete control
[16] = Preemergence, 125 g ai/ha, scale 0 to 100, 0 no effect, 100 complete control
[17] = 31 g ai/ha, scale 0 to 100 (0 no effect, 100 complete control)
[18] = 62 g ai/ha, scale 0 to 100, 0 no effect, 100 complete control
[19] = 125 g ai/ha, scale 0 to 100, 0 no effect, 100 complete control
[20] = Postemergence, 125 g ai/ha, scale 0 (no effect) to 100 (complete control), 13 to 15 days

SMILES: CCc1cccc(-n2c(-c3ccccc3)ncc(C(=O)C3=C(O)CCCC3=O)c2=O)c1 [Compound 220]
- Plant response rating, Crabgrass, Large [1, 10]: 70
- Plant response rating, Crabgrass, Large [1, 11]: 85
- Plant response rating, Crabgrass, Large [1, 12]: 90
- Plant response rating, Crabgrass, Large [1, 13]: 75
- Plant response rating, Crabgrass, Large [1, 14]: 0
- Plant response rating, Crabgrass, Large [1, 15]: 75
- Plant response rating, Crabgrass, Large [1, 16]: 80
- Crabgrass, Large plant response rating ([1]; Preemergence, 250 g ai/ha): 100
- Plant response rating, Galium [2, 17]: 0
- Plant response rating, Galium [2, 18]: 50
- Plant response rating, Galium [2, 19]: 90
- Galium plant response rating [2]: 100
- Plant response rating, Surinam Grass [3, 10]: 50
- Plant response rating, Surinam Grass [3, 12]: 75
- Plant response rating, Surinam Grass [3, 13]: 60
- Plant response rating, Surinam Grass [3, 14]: 10
- Plant response rating, Surinam Grass [3, 15]: 20
- Plant response rating, Surinam Grass [3, 16]: 45
- Surinam Grass plant response rating ([3]; Preemergence, 250 g ai/ha): 65
- Plant response rating, Cocklebur [4, 17]: 0
- Plant response rating, Cocklebur [4, 18]: 0
- Cocklebur plant response rating [4]: 0
- Plant response rating, Lambsquarters [5, 10]: 100
- Plant response rating, Lambsquarters [5, 11]: 100
- Plant response rating, Lambsquarters [5, 12]: 100
- Plant response rating, Lambsquarters [5, 13]: 100
- Plant response rating, Lambsquarters [5, 14]: 100
- Plant response rating, Lambsquarters [5, 15]: 100
- Plant response rating, Lambsquarters [5, 16]: 100
- Lambsquarters plant response rating ([5]; Preemergence, 250 g ai/ha): 100
- Plant response rating, Sunflower [6, 17]: 0
- Plant response rating, Sunflower [6, 18]: 45
- Plant response rating, Sunflower [6, 19]: 70
- Sunflower plant response rating [6]: 90
- Plant response rating, Nightshade [7, 17]: 65
- Plant response rating, Nightshade [7, 18]: 90
- Plant response rating, Nightshade [7, 19]: 98
- Nightshade plant response rating [7]: 100
- Plant response rating, Oat, Wild (wild oat (Avena fatua); [10]): 10
- Plant response rating, Oat, Wild (wild oat (Avena fatua); [12]): 50
- Plant response rating, Oat, Wild (wild oat (Avena fatua); [13]): 20
- Plant response rating, Oat, Wild (wild oat (Avena fatua); [15]): 0
- Plant response rating, Oat, Wild (wild oat (Avena fatua); [16]): 0
- Oat, Wild plant response rating (wild oat (Avena fatua); Preemergence, 250 g ai/ha): 60
- Plant response rating, Cupgrass, Woolly [8, 10]: 60
- Plant response rating, Cupgrass, Woolly [8, 11]: 65
- Plant response rating, Cupgrass, Woolly [8, 12]: 65
- Plant response rating, Cupgrass, Woolly [8, 13]: 60
- Plant response rating, Cupgrass, Woolly [8, 14]: 0
- Plant response rating, Cupgrass, Woolly [8, 15]: 0
- Plant response rating, Cupgrass, Woolly [8, 16]: 10
- Cupgrass, Woolly plant response rating ([8]; Preemergence, 250 g ai/ha): 25
- Plant response rating, Nutsedge, Yellow [9, 10]: 10
- Plant response rating, Nutsedge, Yellow [9, 11]: 25
- Plant response rating, Nutsedge, Yellow [9, 12]: 55
- Plant response rating, Nutsedge, Yellow [9, 13]: 25
- Plant response rating, Nutsedge, Yellow [9, 14]: 0
- Plant response rating, Nutsedge, Yellow [9, 15]: 0
- Plant response rating, Nutsedge, Yellow [9, 16]: 60
- Nutsedge, Yellow plant response rating ([9]; Preemergence, 250 g ai/ha): 90
- Plant response rating, Kochia (kochia (Kochia scoparia); [10]): 45
- Plant response rating, Kochia (kochia (Kochia scoparia); [11]): 75
- Plant response rating, Kochia (kochia (Kochia scoparia); [12]): 100
- Plant response rating, Kochia (kochia (Kochia scoparia); [13]): 65

SMILES: COCCCn1c(-c2cc(F)cc(F)c2)ncc(C(=O)C2=C(O)C3CCC(C3)C2=O)c1=O (stereo not drawn) [Compound 244]
- Plant response rating, Crabgrass, Large [1, 10]: 80
- Plant response rating, Crabgrass, Large [1, 20]: 100
- Plant response rating, Crabgrass, Large [1, 12]: 100
- Plant response rating, Crabgrass, Large [1, 13]: 100
- Plant response rating, Crabgrass, Large [1, 14]: 98
- Plant response rating, Crabgrass, Large [1, 15]: 100
- Plant response rating, Crabgrass, Large [1, 16]: 100
- Crabgrass, Large plant response rating ([1]; Preemergence, 250 g ai/ha): 100
- Plant response rating, Galium [2, 17]: 55
- Plant response rating, Galium [2, 18]: 65
- Plant response rating, Galium [2, 19]: 98
- Galium plant response rating [2]: 98
- Plant response rating, Surinam Grass [3, 10]: 90
- Plant response rating, Surinam Grass [3, 20]: 100
- Plant response rating, Surinam Grass [3, 12]: 100
- Plant response rating, Surinam Grass [3, 13]: 95
- Plant response rating, Surinam Grass [3, 14]: 75
- Plant response rating, Surinam Grass [3, 15]: 100
- Plant response rating, Surinam Grass [3, 16]: 100
- Surinam Grass plant response rating ([3]; Preemergence, 250 g ai/ha): 100
- Plant response rating, Cocklebur [4, 18]: 90
- Plant response rating, Cocklebur [4, 19]: 100
- Cocklebur plant response rating [4]: 100
- Plant response rating, Lambsquarters [5, 10]: 100
- Plant response rating, Lambsquarters [5, 20]: 100
- Plant response rating, Lambsquarters [5, 12]: 100
- Plant response rating, Lambsquarters [5, 13]: 100
- Plant response rating, Lambsquarters [5, 14]: 100
- Plant response rating, Lambsquarters [5, 15]: 100
- Plant response rating, Lambsquarters [5, 16]: 100
- Lambsquarters plant response rating ([5]; Preemergence, 250 g ai/ha): 100
- Plant response rating, Sunflower [6, 17]: 80
- Plant response rating, Sunflower [6, 18]: 80
- Plant response rating, Sunflower [6, 19]: 85
- Sunflower plant response rating [6]: 100
- Plant response rating, Nightshade [7, 17]: 98
- Plant response rating, Nightshade [7, 18]: 100
- Plant response rating, Nightshade [7, 19]: 100
- Nightshade plant response rating [7]: 100
- Plant response rating, Oat, Wild (wild oat (Avena fatua); [10]): 50
- Plant response rating, Oat, Wild (wild oat (Avena fatua); [20]): 95
- Plant response rating, Oat, Wild (wild oat (Avena fatua); [12]): 98
- Plant response rating, Oat, Wild (wild oat (Avena fatua); [13]): 70
- Plant response rating, Oat, Wild (wild oat (Avena fatua); [14]): 0
- Plant response rating, Oat, Wild (wild oat (Avena fatua); [15]): 5
- Plant response rating, Oat, Wild (wild oat (Avena fatua); [16]): 10
- Oat, Wild plant response rating (wild oat (Avena fatua); Preemergence, 250 g ai/ha): 40
- Plant response rating, Cupgrass, Woolly [8, 10]: 100
- Plant response rating, Cupgrass, Woolly [8, 20]: 100
- Plant response rating, Cupgrass, Woolly [8, 12]: 100
- Plant response rating, Cupgrass, Woolly [8, 13]: 100
- Plant response rating, Cupgrass, Woolly [8, 14]: 45
- Plant response rating, Cupgrass, Woolly [8, 15]: 55
- Plant response rating, Cupgrass, Woolly [8, 16]: 95
- Cupgrass, Woolly plant response rating ([8]; Preemergence, 250 g ai/ha): 100
- Plant response rating, Nutsedge, Yellow [9, 10]: 45
- Plant response rating, Nutsedge, Yellow [9, 20]: 65
- Plant response rating, Nutsedge, Yellow [9, 12]: 75
- Plant response rating, Nutsedge, Yellow [9, 13]: 50
- Plant response rating, Nutsedge, Yellow [9, 14]: 20
- Plant response rating, Nutsedge, Yellow [9, 15]: 60
- Plant response rating, Nutsedge, Yellow [9, 16]: 80
- Nutsedge, Yellow plant response rating ([9]; Preemergence, 250 g ai/ha): 95
- Plant response rating, Kochia (kochia (Kochia scoparia); [10]): 85
- Plant response rating, Kochia (kochia (Kochia scoparia); [20]): 100
- Plant response rating, Kochia (kochia (Kochia scoparia); [12]): 100
- Plant response rating, Kochia (kochia (Kochia scoparia); [13]): 90
- Plant response rating, Kochia (kochia (Kochia scoparia); [14]): 85
- Plant response rating, Kochia (kochia (Kochia scoparia); [15]): 90
- Plant response rating, Kochia (kochia (Kochia scoparia); [16]): 95
- Kochia plant response rating (kochia (Kochia scoparia); Preemergence, 250 g ai/ha, 0 to 100 scale): 100
